Reference: doi:10.1101/2022.12.26.521971v1 (biorxiv, 2022)

Molecular target: rNTSR1 (wild-type rat Neurotensin Receptor 1) (Rattus norvegicus, UniProt P20789)
Test: cell-based
Design: species or system HEK293T

rNTSR1 (wild-type rat Neurotensin Receptor 1), sequence (P20789 whole entry): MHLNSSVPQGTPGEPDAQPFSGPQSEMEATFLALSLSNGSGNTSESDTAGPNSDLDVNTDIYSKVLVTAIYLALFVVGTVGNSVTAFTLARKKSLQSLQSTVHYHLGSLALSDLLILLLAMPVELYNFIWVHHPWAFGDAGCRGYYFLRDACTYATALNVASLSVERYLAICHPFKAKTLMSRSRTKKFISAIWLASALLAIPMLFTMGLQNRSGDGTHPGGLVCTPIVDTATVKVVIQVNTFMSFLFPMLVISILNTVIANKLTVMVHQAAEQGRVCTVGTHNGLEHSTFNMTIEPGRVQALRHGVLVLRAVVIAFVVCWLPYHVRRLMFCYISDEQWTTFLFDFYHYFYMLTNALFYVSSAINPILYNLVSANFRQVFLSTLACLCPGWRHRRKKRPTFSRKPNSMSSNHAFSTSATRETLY

Kb: 776 nM
Structure (SMILES): COc1cc2nc(C3CC3)nc(N3CCN(c4ccccc4OC)CC3)c2cc1OC [ML314]
